Test results as given in patent publication US8614206B2 (Genentech, Inc., priority 2011, dated 2013).
Read-outs that look alike come from different tables or passages of the source.

How the values were obtained:
BaF3 PIM1 cells = test: cells; settings: Mus musculus
Experimental: BaF3 parental line was obtained from the DSMZ repository. BaF3 lines transfected with PIM 1 or PIM2 were generated. Mouse IL-3 was purchased from R&D Systems. G418 was purchased from Clontech. Media for BaF3 parental line contained RPMI, 10% FBS, 2 mM L-Glutamine, 2 ng/mL mIL-3. Media for BaF3 PIM1 & 2 lines contained RPMI, 10% FBS, 2 mM L-Glutamine, 250 μg/mL.
BaF3, a murine interleukin-3 dependent pro-B cell line, parental cells, BaF3 PIM1 cells, BaF3 PIM2 cells, and MM1.S (multiple myeloma) cells were seeded at 2 k/well, 5 k/well, 5 k/well, and 10 k/well respectively, in a 384-well plate, at 45 μL/well. Test compound was added at 5 μL/well. BaF3 cells (parental and transfected) were incubated overnight, while MM1.S cells were incubated for 72 hours at 37° C., 5% CO2. CELL TITER GLO® Reagent (Promega) was added at 50 μL/well, the plates were incubated for 30 minutes, and their luminescence read on an HT Analyst. IC50/EC50 values for the test compound were calculated.

[1] = test system: MM1.S (multiple myeloma) cells; test: In vitro cell proliferation, MM1.S multiple myeloma cells (CellTiter-Glo, ATP); type: cell-based; settings: Homo sapiens, MM1.S, 72 h, read-out: Prolif MM1S ATP (EC50)
Outline: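 BaF3 parental cells (medium with 2 ng/mL mIL-3) seeded at 2 k/well and MM1.S at 10 k/well, then exposed to test compound at 37° C, 5% CO2: BaF3 overnight, MM1.S for 72 hours. Viability read by CellTiter-Glo; IC50/EC50 values calculated.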

BaF3 parental cells = test: In vitro cell proliferation, BaF3 parental line + IL3 (CellTiter-Glo); type: cell-based, murine; settings: Mus musculus, BaF3, BaF3 parental cells with IL-3, incubated overnight
PIM1 = PIM1 (Homo sapiens (Human), UniProt P11309); test: Pim kinase inhibition, PIM1 LC3K (Example 901); type: biochemical
Sequence of PIM1 (P11309 whole entry): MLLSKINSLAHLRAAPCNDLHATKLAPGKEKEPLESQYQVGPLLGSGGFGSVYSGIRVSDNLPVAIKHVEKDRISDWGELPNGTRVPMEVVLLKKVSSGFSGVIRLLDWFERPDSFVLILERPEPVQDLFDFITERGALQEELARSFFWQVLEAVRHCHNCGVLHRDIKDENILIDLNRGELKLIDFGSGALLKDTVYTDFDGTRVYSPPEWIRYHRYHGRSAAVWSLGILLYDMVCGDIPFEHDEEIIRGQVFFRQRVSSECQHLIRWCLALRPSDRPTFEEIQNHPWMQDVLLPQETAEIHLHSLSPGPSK
Text: Determination of the Pim kinase activity of a Formula I compound is possible by a number of direct and indirect detection methods.

[2] = BaF3, read-out: Prolif BaF3_PIM1 (IC50), BaF3 PIM1 cells, incubated overnight
[3] = read-out: Prolif BaF3 + IL3 (IC50)
[4] = BaF3, read-out: Prolif BaF3 PIM1 (IC50), BaF3 PIM1 cells, incubated overnight
[5] = read-out: Prolif BaF3 IL3 (IC50)

IC50 (BaF3 PIM1 cells; [2]) | EC50 [1] | Ki (PIM1) | IC50 (BaF3 PIM1 cells; [4]) | SMILES | IC50 (BaF3 parental cells; [3]) | IC50 (BaF3 parental cells; [5])
1400 nM | 123 nM | 0.833 nM | – | COC1CCN(c2c(NC(=O)c3nc(-c4ccccn4)sc3N)cnn2C)CCC1N (racemic) [Example 322, 5-amino-N-[5-(4-amino-5-methoxy-azepan-1-yl)-1-methyl-pyrazol-4-yl]-2-(2-pyridyl)thiazole-4-carboxamide] | > 25000 nM | –
1500 nM | 1100 nM | 0.057 nM | – | Cn1ncc(NC(=O)c2nc(-c3ccccc3F)sc2N)c1N1CCCC(C)(N)CC1 (racemic) [Example 412, 5-amino-N-[5-(4-amino-4-methyl-azepan-1-yl)-1-methyl-pyrazol-4-yl]-2-(2-fluorophenyl)thiazole-4-carboxamide] | 7100 nM | –
3.03 nM | 80.6 nM | 0.008 nM | – | Cn1ncc(NC(=O)c2nc(-c3c(F)cncc3F)sc2N)c1N1CCC(N)CC(F)(F)C1 (racemic) [Example 438, 5-amino-N-[5-(5-amino-3,3-difluoro-azepan-1-yl)-1-methyl-pyrazol-4-yl]-2-(3,5-difluoro-4-pyridyl)thiazole-4-carboxamide] | 20300 nM | –
– | – | 0.083 nM | 4200 nM | Nc1sc(-c2c(F)cccc2F)nc1C(=O)Nc1cnn(CC(F)F)c1N1CCCC[C@H](N)C1 [Example 103, (S)-5-amino-N-(5-(3-aminoazepan-1-yl)-1-(2,2-difluoroethyl)-1H-pyrazol-4-yl)-2-(2,6-difluorophenyl)thiazole-4-carboxamide] | – | 8200 nM
– | 50.2 nM | – | 21 nM | Cn1ncc(NC(=O)c2nc(-c3c(F)cccc3F)sc2N)c1N1CCC(N)CC(F)(F)C1 (stereo not drawn) [Example 121, 5-Amino-N-(5-(5-amino-3,3-difluoroazepan-1-yl)-1-methyl-1H-pyrazol-4-yl)-2-(2,6-difluorophenyl)thiazole-4-carboxamide] | – | 4800 nM
– | 22.9 nM | – | 16.5 nM | Cn1ncc(NC(=O)c2nc(-c3c(F)cccc3F)sc2N)c1N1CC[C@H](N)CC(F)(F)C1 [Example 166, (S)-5-amino-N-(5-(5-amino-3,3-difluoroazepan-1-yl)-1-methyl-1H-pyrazol-4-yl)-2-(2,6-difluorophenyl)thiazole-4-carboxamide] | – | 13400 nM
– | 1400 nM | – | 48.4 nM | Cn1ncc(NC(=O)c2nc(-c3c(F)cccc3F)sc2N)c1N1CC[C@@H](N)CC(F)(F)C1 [Example 167, (R)-5-amino-N-(5-(5-amino-3,3-difluoroazepan-1-yl)-1-methyl-1H-pyrazol-4-yl)-2-(2,6-difluorophenyl)thiazole-4-carboxamide] | – | > 25000 nM
1500 nM | – | 0.002 nM | – | Cn1ncc(NC(=O)c2nc(-c3c(F)ccc(I)c3F)sc2N)c1N1CC[C@@H](N)CC(F)(F)C1 [Example 346, 5-amino-N-[5-[(5R)-5-amino-3,3-difluoro-azepan-1-yl]-1-methyl-pyrazol-4-yl]-2-(2,6-difluoro-3-iodo-phenyl)thiazole-4-carboxamide] | 1200 nM | –
69.2 nM | – | 0.002 nM | – | Cn1ncc(NC(=O)c2nc(-c3c(F)ccc(I)c3F)sc2N)c1N1CC[C@H](N)CC(F)(F)C1 [Example 347, 5-amino-N-[5-[(5S)-5-amino-3,3-difluoro-azepan-1-yl]-1-methyl-pyrazol-4-yl]-2-(2,6-difluoro-3-iodo-phenyl)thiazole-4-carboxamide] | 2400 nM | –
825 nM | – | 0.109 nM | – | CCn1ncc(NC(=O)c2nc(-c3c(F)cccc3F)sc2N)c1N1CC[C@H](N)[C@@H](F)CC1 [Example 348, 5-amino-N-(5-((4S,5S)-4-amino-5-fluoroazepan-1-yl)-1-ethyl-1H-pyrazol-4-yl)-2-(2,6-difluorophenyl)thiazole-4-carboxamide] | 11200 nM | –
2500 nM | – | 0.144 nM | – | Cc1cnc(F)c(-c2nc(C(=O)Nc3cnn(C)c3N3CCC[C@H](N)CC3)c(N)s2)c1 [Example 425, 5-amino-N-[5-[(4S)-4-aminoazepan-1-yl]-1-methyl-pyrazol-4-yl]-2-(2-fluoro-5-methyl-3-pyridyl)thiazole-4-carboxamide] | > 25000 nM | –
6600 nM | – | 0.884 nM | – | Cc1ccncc1-c1nc(C(=O)Nc2cnn(C)c2N2CC[C@@H](N)[C@H](F)CC2)c(N)s1 [Example 428, 5-amino-N-[5-[(4R,5R)-4-amino-5-fluoro-azepan-1-yl]-1-methyl-pyrazol-4-yl]-2-(4-methyl-3-pyridyl)thiazole-4-carboxamide] | > 25000 nM | –
5300 nM | – | 0.315 nM | – | Cc1c(-c2nc(C(=O)Nc3cnn(C)c3N3CC[C@@H](N)[C@H](F)CC3)c(N)s2)cnn1C [Example 429, 5-amino-N-[5-[(4R,5R)-4-amino-5-fluoro-azepan-1-yl]-1-methyl-pyrazol-4-yl]-2-(1,5-dimethylpyrazol-4-yl)thiazole-4-carboxamide] | > 25000 nM | –
5800 nM | – | 1.44 nM | – | Cn1ncc(NC(=O)c2nc(-c3cccc(C#N)n3)sc2N)c1N1CC[C@@H](N)[C@H](F)CC1 [Example 432, 5-amino-N-[5-[(4R,5R)-4-amino-5-fluoro-azepan-1-yl]-1-methyl-pyrazol-4-yl]-2-(6-cyano-2-pyridyl)thiazole-4-carboxamide] | 6300 nM | –
1300 nM | – | 0.024 nM | – | Cn1ncc(NC(=O)c2nc(-c3ccccc3F)sc2N)c1N1CCCC(C)(N)CC1 (stereo not drawn) [Example 433, 5-amino-N-[5-(4-amino-4-methyl-azepan-1-yl)-1-methyl-pyrazol-4-yl]-2-(2-fluorophenyl)thiazole-4-carboxamide] | 11100 nM | –
2300 nM | – | 0.058 nM | – | Cn1ncc(NC(=O)c2nc(-c3c(F)cccc3F)sc2N)c1N1CC[C@@H]2OC(=O)N[C@@H]2CC1 [Example 486, N-[5-[(3aR,8aS)-2-oxo-3a,4,5,7,8,8a-hexahydro-3H-oxazolo[4,5-d]azepin-6-yl]-1-methyl-pyrazol-4-yl]-5-amino-2-(2,6-difluorophenyl)thiazole-4-carboxamide] | 11200 nM | –
2000 nM | – | 0.353 nM | – | Cn1ncc(NC(=O)c2nc(-c3c(F)cccc3F)sc2N)c1N1CC[C@@H]2NC(=O)O[C@@H]2CC1 [Example 488, N-[5-[(3aS,8aR)-2-oxo-3a,4,5,7,8,8a-hexahydro-3H-oxazolo[4,5-d]azepin-6-yl]-1-methyl-pyrazol-4-yl]-5-amino-2-(2,6-difluorophenyl)thiazole-4-carboxamide] | 5400 nM | –
17.7 nM | 3000 nM | – | – | [2H]C([2H])([2H])n1ncc(NC(=O)c2nc(-c3c(F)cccc3F)sc2N)c1N1CC[C@H](N)CC(F)(F)C1 [Example 493, 5-amino-N-[5-[(5S)-5-amino-3,3-difluoro-azepan-1-yl]-1-(trideuteriomethyl)pyrazol-4-yl]-2-(2,6-difluorophenyl)thiazole-4-carboxamide] | 7800 nM | –
13.4 nM | 54.6 nM | – | – | [2H]C([2H])([2H])n1ncc(NC(=O)c2nc(-c3c(F)cccc3F)sc2N)c1N1CC[C@@H](N)CC(F)(F)C1 [Example 494, 5-amino-N-[5-[(5R)-5-amino-3,3-difluoro-azepan-1-yl]-1-(trideuteriomethyl)pyrazol-4-yl]-2-(2,6-difluorophenyl)thiazole-4-carboxamide] | 8900 nM | –
